The subject of one data set is hPSC-derived NSCs. The experiment in a line: Ventral regional identity of hPSC-derived NSCs at 9 DDC in dSMADi+SAG conditions (NKX2.1, LMX1A, PHOX2B, NKX2.2). The conditions noted are these: for identity imposed by RA analogue with inhibition of CYP26 activity: 500 nM analogue for 48-hours plus 500 nM R115866, 9 DDC; for identity imposed by RA analogue: 500 nM for 48-hours; for identity imposed by RA analogue / identity of NSCs: dSMADi+SAG; for identity imposed by RA analogue / identity of cells after inhibiting CYP26 activity / identity of NSCs: 9 DDC. It counts as cell-based, human.

The next data set concerns CYP26. The conditions noted are these: cited from earlier work.
Data set [1] concerns hPSC-derived ventral midbrain dopaminergic progenitors. Briefly: Specification of caudal midbrain identity (EN1 immunocytochemistry). The conditions noted are these: RA^2D+SAG plus 5 μM CHIR99021 between 4-9DDC. The data set is classed as cell-based, human. The protocol: (a) (a) Immunocytochemical analysis of ventral MB progenitor identities at 14 DDC. […] Nuclei of cells visualized with DAPI staining. (b) Immunocytochemistry of dopaminergic neuron marker TH and caudal midbrain marker EN1 expression in 40 DDC cultures differentiated in indicated conditions.
Cells were fixed for 12 min at room temperature (RT) in 4% paraformaldehyde in PBS, rinsed 3 times in PBST (PBS with 0.1% Triton-X100), and blocked for 1 hour at RT with blocking solution (3% FCS/0.1% Triton-X100 in PBS). Cells were then incubated with primary antibodies overnight at 4° C., followed by incubation with fluorophore-conjugated secondary antibodies for 1 hour at RT. Both primary and fluorophore-conjugated secondary antibodies were diluted in blocking solution. Primary antibodies used are listed in Supplementary Table 1. Appropriate Alexa (488, 555, 647)-conjugated secondary antibodies (Molecular Probes) were used.
Mechanisms underlying specification of midbrain dopamine neuron subtypes remains poorly resolved, but is likely to involve sub-patterning of ventral midbrain dopaminergic progenitors along the mediolateral and rostro-caudal axes of the midbrain (Brignani, S, and Pasterkamp, R. J., Front. Neuroanat. 11, 1-18 (2017)). WNT1 signaling emanating from the isthmic organizer at the midbrain-hindbrain boundary establish polarity of midbrain progenitors along the rostro-caudal axis by inducing a caudal^HIGH-to-rostral^LOW expression gradient of the homeodomain proteins EN1 and EN2 (Wurst, W. and Bally-Cuif, L. Nat. Rev. Neuroscience 2, 99-108 (2001)).

For data set [2], the system named is hPSC-derived vMB progenitors. Briefly: Neurogenesis and mDA neuron yield in differentiating hPSC cultures (HuCD, TuJ1, TH, GABA immunocytochemistry, electrophysiology). The data set is classed as cell-based, human. The conditions noted are these: with SAG. The text has this: A unique feature of mDA neurons is that they originate from initially non-neuronal floor plate (FP) cells at the ventral midline of the MB, and progenitors must acquire neuronal potential prior to differentiation into neurons^30,44. Few markers distinguish between these states, but downregulation of SHH and upregulation pro-neural bHLH proteins over time correlate with this transition^44. […] In RA^2D+SAG cultures at 21 DDC, ˜30% of DAPI^+ cells accounted for HuCD^+ neurons (FIG. 4d) and many of these had initiated expression of TH (FIG. 4c). When we instead used CHIR99021+SAG to specify LMX1A^+/NKX2.1^− vMB progenitors (FIG. 3b), cells initiated neurogenesis at around 17 DDC (FIG. 4c, d) which is consistent with previous studies^9,13. At 21 DDC, HuCD^+ neurons constituted ˜10% of total cells and few neurons expressed TH (FIG. 4c, d).
TH^+ neurons acquired a progressively more advanced neuronal morphology with a progressive outgrowth of TH^+ axonal processes in RA^2D+SAG cultures between 30-45 DDC (FIG. 4e, g, h; FIG. 8f (Supplementary FIG. 2f)). TH^+ neurons expressed mDA neuron markers LMX1A, LMX1B, FOXA2, NURR1, and OTX2 at 30-35 DDC (FIG. 4e). […] TH^+ neurons also expressed the mature neuronal marker SYNAPTOPHYSIN and the monoaminergic marker VMAT2 (FIG. 40. A subset of cells expressed GIRK2 or CALBINDIN indicating the presence of both A9- and A10-like subtypes of mDA neurons^45 (FIG. 4f). At 35 DDC, ˜80% of neurons expressed TH^+ which corresponded to ˜65% of total DAPI^+ cells (FIG. 4i, j). ˜10% of neurons expressed GABA (FIG. 4i, j), and some of these co-expressed TH (FIG. 10c (Supplementary FIG. 4c)). Only rare neurons expressing 5-HT or the MN marker PERIPHERIN were detected (FIG. 4i, j). High performance liquid chromatography (HPLC) analyses at 42 DDC established that neurons produced and released dopamine (FIG. 4k, I) but not serotonin (5-HT) or noradrenaline (NA) (FIG. 4k). […] Very few cells expressed Ki67 or phospho-histone H3 at 35-40 DDC indicating low mitotic activity after long-term culturing of cells (FIG. 4i). Functional maturation of mDA neurons in vitro can be monitored by determining the time when hPSC-derived mDA neurons acquire spontaneous action potentials, evoked action potentials and voltage-dependent Na^+ and K^+ currents, and these traits were previously reported to be attained after ˜60 days of culture of FACS-enriched mDA neurons (25+36 days: before/after sorting) using current state-of-the-art protocols^7. […] Neurons showing both spontaneous (FIG. 4m) and evoked action potentials (FIG. 4n) could be recorded at 40 DDC.
80-90% confluent PSCs cultures were rinsed twice with PBS, treated with EDTA (0.5 mM in PBS) for 5-7 min, and resuspended into single cell suspension in PBS. Cells were spin down at 400 g and resuspended in N2B27 medium (DMEM/F12: Neurobasal (1:1), 0.5×N2 and 0.5×B27 (plus vitamin A) supplements, 1×nonessential amino acids, 1% GlutaMAX, 55 μM β-mercaptoethanol-all from Thermo Fisher Scientific) containing 5 μM SB431542 (Miltenyi Biotech) and 2.5 μM DMH1 (Santa Cruz Biotech) (dual SMAD inhibition), and 10 μM ROCK inhibitor (for the first 48 hours after seeding). Cells were seeded on VTN (2 μg/cm^2) and Fibronectin (FN) (2 μg/cm^2) (Sigma) coated surface at a density of 60,000-80,000 cells/cm^2 for RA- and RA-analogues based experiments, and 20,000 cells/cm^2 for CHIR99021 experiments. SAG1.3 (Santa Cruz Biotechnology), CHIR99021 (Miltenyi Biotech), all-trans RA, 9-cis RA, 13-cis RA, Tazarotenic acid, R115866 (all Sigma), EC23 (Amsbio) were used at concentrations and time points described in the result section. For mDA neuron differentiation (see schematic drawing FIG. 4) neural progenitors were mechanically dissociated at 9 DDC with Stem Cell Passaging Tool (Thermo Fisher Scientific) and seeded at 1:3 ratio in N2B27 medium containing 10 μM ROCK inhibitor (for first 48 hours after dissociation) on VTN and FN coated surfaces. […]

In another data set the test system is β-catenin. Briefly: β-CATENIN nuclear levels in cultures at 2 DDC. The data set is classed as cell-based, human. The conditions noted are these: dSMADi+SAG. The text has this: FIG. 2: Specification of NSC with ventral midbrain identity using RA and SHH signaling. (a) Schematic of hPSCs differentiation with timeline of treatment with RA and activator of SHH signaling (SAG) (top). Immunocytochemistry for indicated markers at 9 DDC in cultures differentiated in dSMADi+SAG-condition and pulsed with RA for 1-, 2- or 4-days (bottom). (b) Relative gene expression (FPKM) of indicated genes in 9 DDC cultures differentiated in dSMADi+SAG-conditions and treated with RA for the indicated time. (c) Heatmap and hierarchical clustering of differentially expressed genes of 9 DDC cultures differentiated in dSMADi+SAG-condition and treated with RA for the indicated time. (d) Schematic of gene expression profiles defining distinct ventral progenitors in the diencephalon (Di), midbrain (MB) and hindbrain (HB) positions. (e) Expression of genes associated with the indicated regional progenitors at 14 DDC in cultures differentiated in dSMADi+SAG+RA^2D condition. (f) Immunocytochemistry for β-CATENIN (left) and boxplots of β-CATENIN nuclear levels (right) in cultures at 2 DDC differentiated in dSMADi+SAG-condition (control) and treated with RA or CHIR99021. Boxplot, whiskers define 5th and 95th percentile. Asterisks, Student t test; **p<0.01, ***p<0.001. (g) Immunocytochemistry for the indicated markers in cultures at 14 DDC differentiated in dSMADi+SAG+RA^2D condition. […]

Entries after “also recorded” stand apart in the source; their conditions may differ.

Consider `CC1(C)CCSc2ccc(C#Cc3ccc(C(=O)O)cn3)cc21` [tazarotenic acid], for which, in the data set with hPSC-derived NSCs, the “identity imposed by RA analogue with inhibition of CYP26 activity” value is listed as “shift into a PHOX2B^+ HB identity” and the “identity imposed by RA analogue” value was “LMX1A^+/NKX2.1^− vMB identity; also recorded: LMX1A+/NKX2.1− vMB identity”. Further, the “susceptibility to CYP26-mediated oxidation” value (“susceptibility” for short) in the data set on CYP26 is “substrates for CYP26-mediated oxidation”.

As for `CNC1CCC(N(Cc2cccc(-c3ccncc3)c2)C(=O)c2sc3ccccc3c2Cl)CC1` (stereo not shown) [SAG], the “SAG concentration for effective induction of vMB NSC identity” value in the data set on hPSC-derived NSCs (dSMADi, SAG from day 0, 9 DDC) is reported as 50 nM.

With `CCC(CC)C(c1ccc(Nc2nc3ccccc3s2)cc1)n1cncn1` (stereo not shown) [R115866], the “identity of cells after inhibiting CYP26 activity” value in the data set on hPSC-derived NSCs (100 nM R115866, RA+SAG cultures) is “mix of LMX1A^+/NKX2.1^− vMB cells and PHOX2B^+ HB cells”; with hPSC-derived NSCs (500 nM R115866 between 0-3 DDC, RA^1D+SAG or RA^2D+SAG cultures), “PHOX2B^+ HB-identity”; in the data set on hPSC-derived NSCs (R115866 and SAG only (no RA)), “did not suppress NKX2.1^+ FB-fate”.

With `CC1(C)CCC(C)(C)c2cc(C#Cc3ccc(C(=O)O)cc3)ccc21` [EC23], the “identity imposed by EC23” value in the data set on hPSC-derived NSCs (200 nM EC23, EC23^1D+SAG or EC23^2D+SAG, with or without inhibition of CYP26) is “PHOX2B^+ HB-identity; also recorded: hindbrain identity”. In addition, the “EC23 concentration imposing a vMB-identity” value in the data set with hPSC-derived NSCs (FIG. 9c titration) was 10 nM. Also, the “duration of EC23 treatment required to induce LMX1A+/NKX2.1− vMB cells” value in the data set on hPSC-derived NSCs (reduced EC23 concentration) was found to be 24 h. Also, in the data set with hPSC-derived NSCs (titration, relative to 200 nM, treatment for 24 hours), the “reduction in concentration required for EC23 to induce LMX1A+/NKX2.1− vMB cells” value is reported as 20 fold.

As to `CC1=C(/C=C/C(C)=C/C=C/C(C)=C\C(=O)O)C(C)(C)CCC1` [13-cis RA, 13-cis-Retinoic acid], in the data set with hPSC-derived NSCs, the “identity imposed by RA analogue with inhibition of CYP26 activity” value is on record as “shift into a PHOX2B^+ HB identity” and the “identity imposed by RA analogue” value is “LMX1A^+/NKX2.1^− vMB identity; also recorded: LMX1A+/NKX2.1− vMB identity”. Also, in the data set with CYP26, the “susceptibility” value is “substrates for CYP26-mediated oxidation”.

Take `CC1=C(/C=C/C(C)=C\C=C\C(C)=C\C(=O)O)C(C)(C)CCC1` [9-cis RA, 9-cis-Retinoic acid]: in the data set on hPSC-derived NSCs, the “identity imposed by RA analogue with inhibition of CYP26 activity” value is given as “shift into a PHOX2B^+ HB identity” and the “identity imposed by RA analogue” value is on record as “LMX1A^+/NKX2.1^− vMB identity; also recorded: LMX1A+/NKX2.1− vMB identity”. In addition, the “susceptibility” value with CYP26 is on record as “substrates for CYP26-mediated oxidation”.

As for `Cc1c[nH]c(-c2cnc(NCCNc3ccc(C#N)cn3)nc2-c2ccc(Cl)cc2Cl)n1` [CHIR99021], the “identity of ventral midbrain progenitors (EN1)” value in data set [1] (14DDC) was “a majority of LMX1A^+/OTX2^+ cells also expressed EN1”. Besides, in data set [1] (40DDC), the “EN1 expression in TH+ dopamine neurons” value was “a large fraction of TH^+ dopamine neurons expressed EN1”. The “identity of NSCs” value is “LMX1A^+/NKX2.1^− identity” in the data set on hPSC-derived NSCs (1 μM); “diencephalic LMX1A^+/NKX2.1^+ character” in the data set with hPSC-derived NSCs (0.8 and 0.6 μM); “NKX2.2^+/LMX1A^− presumptive HB identity” in the data set on hPSC-derived NSCs (1.2 and 1.4 μM). Also, in data set [2] (21 DDC), the “HuCD+ neurons as share of total DAPI+ cells” value was about 10%. In addition, the “time of initiation of neurogenesis (first neurons)” value in data set [2] is listed as “around 17 DDC”. Moreover, in the data set with β-catenin, the β-catenin in nuclei result was “translocation of β-catenin into nuclei”.

Source of the values: patent US20230233617A1, “METHODS FOR DIFFERENTIATING STEM CELLS INTO DOPAMINERGIC PROGENITOR CELLS” (JZ CELL TECHNOLOGIES AB, priority 2020, published 2023).
